Counter-ions that a name gives are not always drawn.
How the values were obtained:
[1] = test system: colon HCT-116; test: NCI screen cytotoxicity, colon HCT-116; format: cell-based; conditions: Homo sapiens, HCT-116, 48 h, read-out: cytotoxicity (GI50) colon HCT-116
[2] = test system: melanoma UACC-62; test: NCI screen cytotoxicity, melanoma UACC-62; format: cell-based; conditions: Homo sapiens, UACC-62, 48 h, read-out: cytotoxicity (GI50) melanoma UACC-62
[3] = test system: prostate DU-145; test: NCI screen cytotoxicity, prostate DU-145; format: cell-based; conditions: Homo sapiens, DU-145, 48 h, read-out: cytotoxicity (GI50) prostate DU-145
[4] = test system: renal SN12C; test: NCI screen cytotoxicity, renal SN12C; format: cell-based; conditions: Homo sapiens, 48 h, read-out: cytotoxicity (GI50) renal SN12C
[5] = test system: lung HOP-62; test: NCI screen cytotoxicity, lung HOP-62; format: cell-based; conditions: Homo sapiens, HOP-62, 48 h, read-out: cytotoxicity (GI50) lung HOP-62
[6] = test system: SV40 DNA; test: DNA unwinding assay; format: biochemical; conditions: for ability to unwind/intercalate into free DNA: range of tested concentrations 1-100 μM
[7] = test system: all human cancer cell lines successfully tested; test: NCI screen, mean graph midpoint; format: cell-based; conditions: 48 h, read-out: cytotoxicity (GI50) MGM
[8] = target: T1, human recombinant Top1 (Homo sapiens, UniProt P11387); test: Top1-mediated DNA cleavage assay; format: biochemical; conditions: for Top1 cleavage: semiquantitative, relative Top1 inhibitory potency vs compounds 1 and 2, 117-bp DNA fragment; for concentration dependence of DNA cleavage band intensity: 0.1-100 μM, side-by-side comparison (Figure 4)
T1 sequence (P11387 1-765): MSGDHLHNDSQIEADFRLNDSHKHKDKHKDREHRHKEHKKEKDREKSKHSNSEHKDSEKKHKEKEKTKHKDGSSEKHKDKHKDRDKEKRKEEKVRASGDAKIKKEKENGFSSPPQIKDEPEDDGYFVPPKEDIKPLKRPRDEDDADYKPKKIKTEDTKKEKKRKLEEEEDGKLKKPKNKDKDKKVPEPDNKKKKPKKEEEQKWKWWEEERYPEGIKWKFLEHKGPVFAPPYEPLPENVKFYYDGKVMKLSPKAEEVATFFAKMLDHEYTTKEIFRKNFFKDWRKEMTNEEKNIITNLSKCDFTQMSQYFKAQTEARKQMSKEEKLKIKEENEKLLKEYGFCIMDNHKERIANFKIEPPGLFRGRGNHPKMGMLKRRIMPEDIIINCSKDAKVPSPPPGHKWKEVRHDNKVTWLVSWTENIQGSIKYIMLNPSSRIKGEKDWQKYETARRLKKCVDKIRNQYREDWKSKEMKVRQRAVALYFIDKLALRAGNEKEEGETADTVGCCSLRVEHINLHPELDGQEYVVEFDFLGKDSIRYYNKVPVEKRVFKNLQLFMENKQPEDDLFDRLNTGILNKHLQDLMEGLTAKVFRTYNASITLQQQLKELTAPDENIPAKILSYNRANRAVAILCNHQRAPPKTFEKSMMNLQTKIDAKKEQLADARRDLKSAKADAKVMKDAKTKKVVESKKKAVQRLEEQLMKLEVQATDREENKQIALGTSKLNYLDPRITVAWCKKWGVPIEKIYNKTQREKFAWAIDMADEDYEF

| Structure (SMILES) | Top1 cleavage [8] | GI50 [7] [nM] | also measured |
| --- | --- | --- | --- |
| CC[C@@]1(O)C(=O)OCc2c1cc1n(c2=O)Cc2cc3ccccc3nc2-1 [Compound 1, camptothecin] | – | – | GI50 [1]: 0.03 µM; GI50 [2]: 0.01 µM; GI50 [3]: 10 nM; GI50 [4]: 20 nM; GI50 [5]: 10 nM |
| O=C1c2cccnc2-c2[nH]c(=O)c3cc([N+](=O)[O-])ccc3c21 [Compound 17, 7-Aza-5,6-dihydro-3-nitro-5,11-dioxo-11H-indeno[1,2-c]isoquinoline] | – | – | ability to unwind/intercalate into free DNA [6]: allow intercalation into DNA in the absence of Top1 |
| CN(C)CCCn1c2c(c3ccc([N+](=O)[O-])cc3c1=O)C(=O)c1cccnc1-2 [Compound 20, 7-Aza-5,6-dihydro-6-(3-dimethylaminopropyl)-3-nitro-5,11-dioxo-11H-indeno[1,2-c]isoquinoline Hydrochloride] | – | 1860 | – |
| O=C1c2cccnc2-c2c1c1ccccc1c(=O)n2CCCN1CCOCC1 [Compound 21, 7-Aza-5,6-dihydro-6-(3-morpholinopropyl)-5,11-dioxo-11H-indeno[1,2-c]isoquinoline Hydrochloride] | – | 15500 | – |
| O=C1c2cccnc2-c2c1c1ccc([N+](=O)[O-])cc1c(=O)n2CCCN1CCOCC1 [Compound 23, 7-Aza-5,6-dihydro-6-(3-morpholinopropyl)-3-nitro-5,11-dioxo-11H-indeno[1,2-c]isoquinoline Hydrochloride] | +++ | – | – |
| O=C1c2cccnc2-c2c1c1ccccc1c(=O)n2CCCn1ccnc1 [Compound 28, 7-Aza-5,6-dihydro-6-(3-(1H-imidazol-1-yl)propyl)-5,11-dioxo-11H-indeno[1,2-c]isoquinoline] | ++ | – | – |
| COc1cc2c3c(n(CCCNCCO)c(=O)c2cc1OC)-c1ncccc1C3=O [Compound 31, 7-Aza-5,6-dihydro-6-(3-(2-hydroxyethylamino)propyl)-2,3-dimethoxy-5,11-dioxo-11H-indeno[1,2-c]isoquinoline Hydrochloride] | – | 290 | concentration dependence of DNA cleavage band intensity [8]: behave similarly to 19 |
| COc1cc2c3c(n(CCCN)c(=O)c2cc1OC)-c1ncccc1C3=O [Compound 32, 7-Aza-5,6-dihydro-6-(3-aminopropyl)-2,3-dimethoxy-5,11-dioxo-11H-indeno[1,2-c]isoquinoline Hydrochloride] | – | 2090 | concentration dependence of DNA cleavage band intensity [8]: behave similarly to 19 |
| CN(C)CCCn1c2c(c3ccccc3c1=O)C(=O)c1ccccc1-2 [Compound 33, reference compound] | +++ | – | – |
| CN(C)CCCn1c2c(c3ccc([N+](=O)[O-])cc3c1=O)C(=O)c1ccccc1-2 [Compound 35] | +++ | 9770 | GI50 [1]: 6.46 µM; GI50 [2]: 7.08 µM; GI50 [4]: 4170 nM |

Further lines, with some results ahead:

| Top1 cleavage [8] | Structure (SMILES) | GI50 [7] [nM] | also measured |
| --- | --- | --- | --- |
| +++ | CN(C)CCCn1c2c(c3ccccc3c1=O)C(=O)c1cccnc1-2 [Compound 18, 7-Aza-5,6-dihydro-6-(3-dimethylaminopropyl)-5,11-dioxo-11H-indeno[1,2-c]isoquinoline Hydrochloride] | 1780 | – |
| +++ | COc1cc2c3c(n(CCCN(C)C)c(=O)c2cc1OC)-c1ncccc1C3=O [Compound 19, 7-Aza-5,6-dihydro-6-(3-dimethylaminopropyl)-2,3-dimethoxy-5,11-dioxo-11H-indeno[1,2-c]isoquinoline Hydrochloride] | 4500 | inhibition of Top1-mediated DNA relaxation ([6]; at highest tested concentration, 100 μM): completely inhibits the Top1-mediated DNA relaxation |
| ++ | COc1cc2c3c(n(CCCN4CCOCC4)c(=O)c2cc1OC)-c1ncccc1C3=O [Compound 22, 7-Aza-5,6-dihydro-6-(3-morpholinopropyl)-2,3-dimethoxy-5,11-dioxo-11H-indeno[1,2-c]isoquinoline Hydrochloride] | – | concentration dependence of DNA cleavage band intensity [8]: concentration-dependent increase of intensity of DNA cleavage bands; ability to unwind/intercalate into free DNA [6]: inability to unwind/intercalate into DNA |
| ++ | COc1cc2c3c(n(CCCn4ccnc4)c(=O)c2cc1OC)-c1ncccc1C3=O [Compound 29, 7-Aza-5,6-dihydro-6-(3-(1H-imidazol-1-yl)propyl)-2,3-dimethoxy-5,11-dioxo-11H-indeno[1,2-c]isoquinoline] | – | concentration dependence of DNA cleavage band intensity [8]: concentration-dependent increase of intensity of DNA cleavage bands |
| + | O=C1c2cccnc2-c2c1c1ccccc1c(=O)n2CCCNCCO [Compound 30, 7-Aza-5,6-dihydro-6-(3-(2-hydroxyethylamino)propyl)-5,11-dioxo-11H-indeno[1,2-c]isoquinoline Hydrochloride] | 1290 | – |
